Data taken from PubChem BioAssay (NCI).
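Five concentrations, 48 hours, 96-well plates. At the TGI there is no net growth.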

Key:
Test in all cases: inhibition of tumour cell growth, NCI panel, 48 h
MDA-N = test system: MDA-N
HCT-116 colon = test system: HCT-116 colon
SNB-19 CNS = test system: SNB-19 CNS
RXF 393 renal = test system: RXF 393 renal
K-562 leukemia = test system: K-562 leukemia
MCF7 breast = test system: MCF7 breast
SK-MEL-28 melanoma = test system: SK-MEL-28 melanoma
NCI-H23 lung = test system: NCI-H23 lung
SF-268 CNS = test system: SF-268 CNS
SR leukemia = test system: SR leukemia

Row | Structure (SMILES) | TGI (MDA-N) | TGI (HCT-116 colon) | TGI (SNB-19 CNS) | TGI (RXF 393 renal) | TGI (K-562 leukemia) | TGI (MCF7 breast) | TGI (SK-MEL-28 melanoma) | TGI (NCI-H23 lung) | TGI (SF-268 CNS) | TGI (SR leukemia)
1 | CC1CN=C(c2cccc(OCc3ccc(COc4cccc(C5=NCC(C)N5)c4)cc3)c2)N1 (stereo unspecified) | > 100 µM | > 100 µM | > 100 µM | > 100 µM | > 100 µM | > 100 µM | > 100 µM | > 100 µM | > 100 µM | –
2 | Cc1ccc2c(c1)c(=O)c1c(NCCN(C)C)ccc3nnn2c31 | – | 15.2 µM | 33.8 µM | 16.9 µM | 19.6 µM | – | 18 µM | 15.3 µM | 20.2 µM | 7.67 µM
3 | CCCCCCCCCCCCCCCCOCC(CC(F)(F)P(=O)(O)O)OC(C)=O (stereo unspecified) | > 50 µM | > 50 µM | > 50 µM | – | > 50 µM | > 50 µM | > 50 µM | > 50 µM | > 50 µM | –
4 | CCCCc1ccc2[n+](c1)C(C(=O)OCC)=PC2 (stereo unspecified) | > 100 µM | > 100 µM | – | > 100 µM | – | > 100 µM | > 100 µM | > 100 µM | > 100 µM | > 100 µM
5 | Cc1cccc(NC(=O)CC(=O)N2N=C(N3c4ccccc4Sc4ccccc43)CC2c2ccccc2)c1 (stereo unspecified) | – | > 100 µM | > 100 µM | > 100 µM | > 100 µM | > 100 µM | > 100 µM | > 100 µM | > 100 µM | > 100 µM
6 | O=C1c2cc([N+](=O)[O-])ccc2NC2C(O)c3ccccc3N12 (stereo unspecified) | > 100 µM | > 100 µM | > 100 µM | 34.5 µM | 87.8 µM | > 100 µM | – | 72.5 µM | > 100 µM | 56.2 µM
7 | CCCCn1cc(C(=O)O)c(=O)c2c3sccc3ccc21 | > 100 µM | > 100 µM | > 100 µM | > 100 µM | > 100 µM | > 100 µM | > 100 µM | > 100 µM | > 100 µM | –
8 | O=c1[nH]c(=O)n(C2CC(O)C(CO)O2)cc1C#Cc1ccc(C(F)(F)F)cc1 (stereo unspecified) | – | > 100 µM | > 100 µM | > 100 µM | > 100 µM | – | > 100 µM | > 100 µM | > 100 µM | > 100 µM
9 | COc1cc(N=Nc2cccc(S(=O)(=O)O)c2)c(C)cc1N=Nc1ccc(/C=C/c2ccc(N=[N+]([O-])c3ccc(/C=C/c4ccc(N=Nc5cc(C)c(N=Nc6cccc(S(=O)(=O)O)c6)cc5OC)cc4)c(S(=O)(=O)O)c3)cc2S(=O)(=O)O)cc1 | – | > 100 µM | > 100 µM | > 100 µM | > 100 µM | > 100 µM | > 100 µM | > 100 µM | > 100 µM | –
10 | C=CCc1c(O)c2ccccc2[nH]c1=O | > 100 µM | > 100 µM | > 100 µM | – | > 100 µM | > 100 µM | > 100 µM | > 100 µM | – | > 100 µM
11 | Oc1c2cccc1Cc1cccc3c1OCCOCCOCCOCCOc1c(cccc1Cc1cccc(c1O)C3)C2 | – | > 100 µM | > 100 µM | > 100 µM | > 100 µM | > 100 µM | > 100 µM | > 100 µM | > 100 µM | > 100 µM
12 | CC(C)(C)OC(=O)NC(Cc1ccccc1)C(=O)N[C@H]1c2ccsc2/C(=N/O)[C@H]1O (stereo partly specified) | > 100 µM | > 100 µM | > 100 µM | > 100 µM | > 100 µM | > 100 µM | – | > 100 µM | – | > 100 µM
13 | NC1=NS(=O)(=O)N=C(N)C1=Cc1ccc([N+](=O)[O-])o1 | – | 28.7 µM | > 100 µM | 32.8 µM | 19.5 µM | – | 29.5 µM | 31.4 µM | 31.3 µM | 29.2 µM
14 | O=C1/C(=C/c2ccccc2S)N=C(c2ccccc2)N1c1ccc2c(c1)Sc1cc(N3C(=O)/C(=C/c4ccccc4S)N=C3c3ccccc3)ccc1N2 | 51.3 µM | 40.8 µM | 30.4 µM | – | 51 µM | 39.1 µM | 44.5 µM | – | 39.6 µM | 40.4 µM
15 | CC(=O)N(C(C)=O)n1c(Cc2ccc(Cl)cc2)nn(C(C)=O)c1=O | > 100 µM | – | > 100 µM | > 100 µM | > 100 µM | > 100 µM | > 100 µM | > 100 µM | > 100 µM | > 100 µM
16 | Cc1ccc(S(=O)(=O)Nn2c(-c3ccccc3)c(C#N)c(-c3ccc([N+](=O)[O-])cc3)c(C#N)c2=O)cc1 | > 100 µM | > 100 µM | > 100 µM | > 100 µM | – | > 100 µM | > 100 µM | – | > 100 µM | –
17 | CC1=NNC(N)=N/C1=C/C(Sc1ccc(Cl)cc1)c1cccs1 (stereo unspecified) | 85 µM | 29.8 µM | 85.7 µM | 34.7 µM | 67.9 µM | 20.4 µM | 39.7 µM | 52 µM | 30.5 µM | –
18 | O=c1c(Cc2ccc(Cl)cc2)nnc2sc(-c3ccc([N+](=O)[O-])cc3)nn12 | > 100 µM | 48.8 µM | > 100 µM | 74.1 µM | > 100 µM | 53 µM | – | 54.5 µM | > 100 µM | 60.4 µM
19 | O=C(C[C@@H]1NCCC[C@H]1O)Cn1cnc2cc(Br)c(Cl)cc2c1=O | 0.0881 µM | 0.121 µM | 0.484 µM | 0.0814 µM | 0.0727 µM | 20.3 µM | 0.119 µM | 0.11 µM | 0.61 µM | –
20 | O=C1CCSSCCC(=O)Nc2ccccc2N1 | – | > 100 µM | > 100 µM | > 100 µM | > 100 µM | – | > 100 µM | > 100 µM | > 100 µM | > 100 µM
21 | Cc1ccc(Nc2nc(=O)[nH]c(=O)[nH]2)cc1N | > 100 µM | > 100 µM | > 100 µM | – | – | > 100 µM | > 100 µM | > 100 µM | > 100 µM | > 100 µM
22 | Cc1ccc2ccccc2c1CC1S(=O)(=O)OCCOS1(=O)=O | 22.2 µM | 26 µM | 25.9 µM | – | 34 µM | 23.1 µM | 32.8 µM | 41 µM | – | 24.9 µM
23 | C/C(=N\N(C)C)C(CN(C)C)C(c1ccccc1)c1c(O)c2ccccc2oc1=O (stereo unspecified) | – | > 100 µM | > 100 µM | > 100 µM | > 100 µM | – | > 100 µM | > 100 µM | > 100 µM | –
